{
  "source": "paper PMC4750079",
  "about": "“Tackling amyloidogenesis in Alzheimer’s disease with A2V variants of Amyloid-β” (Scientific Reports, 2016)",
  "key": {"APPswe/PS1dE9 mice": {"test_system": "APPswe/PS1dE9 mice", "test": "Serum IgG against Aβ peptides after chronic treatment (ELISA)", "type": "in vivo, mouse", "conditions": "once a week for 5 months, n = 9", "experimental": "Figure 8 Serum levels of IgG against Aβ peptides after chronic treatment with Aβ1-6A2VTAT(D). To verify whether Aβ1-6A2VTAT(D) administration once a week for 5 months was associated with an immune response, we collected blood from mice before (T0) and at the end of the treatment (T2). Sera from saline (n = 8) and Aβ1-6A2VTAT(D) (n = 9) treated mice were tested induplicate using ELISA for the presence of IgG against Aβ1-6A2VTAT(D) (A), the full-length Aβ1-42 (B), Aβ1-6A2V (C) and TAT(D) (D).\nSera were collected from mice before (T0) and at the end of the treatment (5 months), and tested using ELISA for the presence of IgG against Aβ1-6A2VTAT(D), the full-length Aβ1-42, Aβ1-6A2V(D) and TAT(D) following previously described protocols for antigen-specific mouse IgG detection, except blocking buffer that was PBS 3% milk. Anti-Aβ1-42 IgG antibodies from 6E10 IgG clone (Covance), and sera from mice immunized with Aβ1-6A2VTAT(D) or with Aβ1-6A2V emulsified in Complete Freund’s adjuvant were used as positive controls."}, "[1]": {"test": "Brain levels after intraperitoneal administration (HPLC-MS/MS)", "type": "in vivo", "conditions": "mice", "experimental": "APP23 mice (Harlan, Correzzana, Italy) were treated by intraperitoneal injection with Aβ1-6A2VTAT(D) (10 mg/kg) or vehicle (saline solution) and sacrificed 1 h or 24 h after the last treatment. Aβ1-6A2VTAT(D) was quantified in mouse brain using HPLC-MS/MS[45]. The stability of Aβ1-6A2VTAT(D) to protease digestion was also investigated by MALDI TOF MS (See Supplementary Information for details).\nTo verify Aβ1-6A2VTAT(D) distribution in vivo, and particularly its bioavailability in the brain, we determined Aβ1-6A2VTAT(D) levels in mice brains after i.p. injection at a dose of 10 mg/kg. Mice were sacrificed at two intervals (1 h, 24 h). Aβ1-6A2VTAT(D) was then quantified in mouse brain using HPLC-MS/MS.\nThe quantitative levels of Aβ1-6A2VTAT(D) in the brain were determined by following a previously described procedure ^4.\nSupplementary Figure 4S Aβ1-6A2VTAT(D) levels in mouse brain (n=4). Data are reported as mean ± SEM of peptide/mg tissue. Animals were treated i.p. at a dose of 10 mg/kg. Animals were sacrificed 1 h or 24 h after last administration following 21 […] treatments (*p < 0.05 T1-1h vs T1-24h and Student’s t-test)."}, "Aβ1-42WT [2]": {"molecular_target": "T1, Aβ1-42WT (Homo sapiens, UniProt P05067)", "T1 construct": "Aβ1-42WT oligomers were formed following incubation of Aβ1-42WT at a final concentration of 100 μM; made in house; host or cells: chemical synthesis (solid-phase Fmoc), no expression host", "T1 sequence (P05067 672-713 limits assumed)": "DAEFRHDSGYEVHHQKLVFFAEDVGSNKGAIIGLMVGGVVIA", "test": "Atomic force microscopy of Aβ1-42WT oligomerization", "type": "biochemical", "conditions": "Aβ1-42WT 100 μM co-incubated with peptide 1:4, pH 7.4, 4 °C, 24 h, AFM", "experimental": "In polarized-light and EM studies, both peptides were used at 0.125 mM, molar ratio = 1:1 or 1:4 respectively, with 20 days incubation. […] E,F: Representative Tapping mode of AFM images as determined by amplitude error data of Aβ1-42WT oligomers. Aβ1-42WT peptide 100 μM in phosphate buffer 50 mM, pH 7.4 was incubated at 4 °C for 24 h alone (E) (Z range: -10/ + 10 mV) or in presence of Aβ1-6A2VTAT(D) (F) (Z range: -10/ + 25 mV). The molar ratio of Aβ1-42WT to Aβ1-6A2VTAT(D) was 1:4. Scale bar: 1 μm, inset: 200 nm. (G,H): height plot profiles obtained along different lines traced on the topographic AFM images.\nAβ1-42WT oligomers were formed following incubation of Aβ1-42WT at a final concentration of 100 μM in phosphate buffer 50 mM, pH 7.4 at 4 °C for 24 h, alone or in presence of Aβ1-6A2VTAT(D), at 1:4 molar ratio. Sample solutions were diluted to a final concentration of 10 μM of Aβ1-42WT with phosphate buffer and 50 μl of each solution was immediately added onto freshly cleaved mica at room temperature for 2 minutes. Samples were washed and dried under gentle nitrogen flow. AFM analyses were carried out on a Multimode AFM with a Nanoscope V system (Veeco/Digital Instruments). AFM images were analysed using the Scanning Probe Image Processor data analysis package. All the topographic patterns and SPIP characterization were verified via additional measurements on a minimum of five different, well separated areas."}, "SH-SY5Y cells": {"test_system": "SH-SY5Y cells", "test": "Toxicity of peptides on differentiated SH-SY5Y cells (MTT test)", "type": "cell-based, human", "conditions": "24 h", "experimental": "Figure 2 Analysis of the effects of Aβ1-6WT(D), Aβ1-6A2V(D) and Aβ1-6A2VTAT(D) on neurotoxicity in cell models. SH-SY5Y cells were differentiated with 10 μM retinoic acid. […] Comparison of cell viability was performed by Student t-test.\nToxicity studies with Aβ1-6WT(D), Aβ1-6A2V(D) or Aβ1-6A2VTAT(D) and the short peptides’ ability to inhibit the toxicity induced by Aβ1-42WT in SH-SY5Y cell cultures were analyzed following previously described protocols. Each experiment was performed in triplicate; the data provided were obtained as the mean of three independent assays."}, "Aβ1-42WT [3]": {"molecular_target": "T1, Aβ1-42WT", "test": "CD spectroscopy of Aβ1-42WT secondary structure", "type": "biochemical", "conditions": "data not shown"}},
  "note": "Where a SMILES comes first, the peptide text is derived from it. [ ]: non-standard residue; d: D form.",
  "data": [
    {"smiles": "CC(C)[C@@H](NC(=O)[C@H](N)CC(=O)O)C(=O)N[C@H](CCC(=O)O)C(=O)N[C@H](Cc1ccccc1)C(=O)N[C@H](CCCNC(=N)N)C(=O)N[C@H](Cc1c[nH]cn1)C(=O)NCC(=O)NCC(=O)NCC(=O)NCC(=O)NCC(=O)N[C@H](CCCNC(=N)N)C(=O)N[C@H](CCCCN)C(=O)N[C@H](CCCCN)C(=O)N[C@H](CCCNC(=N)N)C(=O)N[C@H](CCCNC(=N)N)C(=O)N[C@H](CCC(N)=O)C(=O)N[C@H](CCCNC(=N)N)C(=O)N[C@H](CCCNC(=N)N)C(=O)N[C@H](CCCNC(=N)N)C(=O)O", "note": "[Aβ1-6A2VTAT(D)] (H-[dD][dV][dE][dF][dR][dH]GGGGG[dR][dK][dK][dR][dR][dQ][dR][dR][dR]-OH; N-terminus assumed)", "values": [
      {"measurement": "serum IgG against Aβ1-6A2V peptide", "setting": "APPswe/PS1dE9 mice", "result": "did not induce production of IgG"},
      {"measurement": "serum IgG against Aβ1-6A2VTAT(D)", "setting": "APPswe/PS1dE9 mice", "result": "not negligible levels"},
      {"measurement": "serum IgG against TAT(D)", "setting": "APPswe/PS1dE9 mice", "result": "3 out of 9 mice displayed slightly increased levels"},
      {"measurement": "serum IgG against full-length Aβ", "setting": "APPswe/PS1dE9 mice", "result": "not negligible levels"},
      {"measurement": "tissue level at time at 1 h", "setting": "[1]; APP23, mouse, brain, ip, i.p. 10 mg/kg once a week for five months (21 weekly treatments), 1 h, HPLC-MS/MS, mean ± SEM, n=4, read-out: brain levels 1 h after last treatment", "result": "145 ± 38.3", "unit": "ng/g"},
      {"measurement": "tissue level at time at 24 h", "setting": "[1]; APP23, mouse, brain, ip, i.p. 10 mg/kg once a week for five months (21 weekly treatments), 24 h, HPLC-MS/MS, mean ± SEM, n=4, read-out: brain levels 24 h after last treatment", "result": "62 ± 28.7", "unit": "ng/g"},
      {"measurement": "ability to cross the BBB", "setting": "[1]; i.p. administration", "result": "able to cross the BBB"},
      {"measurement": "diameter of very small globular structures (~70%)", "setting": "Aβ1-42WT [2]", "result": "5-8 nm"},
      {"measurement": "oligomeric structures of Aβ1-42WT detected", "setting": "Aβ1-42WT [2]", "result": "only rare oligomeric structures were detected"},
      {"measurement": "toxicity at concentrations between 1 and 5 μM", "setting": "SH-SY5Y cells; 1 to 5 μM", "result": "not toxic"},
      {"measurement": "toxicity at concentrations higher than 5 μM", "setting": "SH-SY5Y cells; higher concentrations", "result": "reduces cell viability at higher concentrations"},
      {"measurement": "acquisition of β-sheet conformation by Aβ1-42WT", "setting": "Aβ1-42WT [3]", "result": "inhibits the acquisition of β-sheet conformation by Aβ1-42WT"}
    ]}
  ]
}
